Results reported in the NIST ThermoML archive (doi:10.1016/j.jct.2016.02.016).

What was measured:
[1] = xn = mol fraction of the nth substance listed; conditions: 100 kPa, Liquid; for speed of sound: Frequency=3 MHz, Sing-around technique in a fixed-path interferometer; for mass density: Vibrating tube method
[2] = refractive index (Na D-line) (dimensionless); xn = mol fraction of the nth substance listed; conditions: 100 kPa, Liquid, Standard Abbe refractometry

CC(C)=O [acetone] + CN(C)C=O
Conditions	mass density, [1] [kg/m3]	refractive index, [2]	speed of sound, [1] [m/s]
293.15 K, x2 = 0	790.19	1.35845	1183.6
293.15 K, x2 = 0.0503	799.565	1.36286	1200.1
293.15 K, x2 = 0.1057	809.645	1.3677	1218
293.15 K, x2 = 0.1529	818.017	1.37155	1232.9
293.15 K, x2 = 0.1992	826.191	1.37532	1247.6
293.15 K, x2 = 0.2475	834.489	1.37922	1262.6
293.15 K, x2 = 0.2981	843.136	1.38311	1278.3
293.15 K, x2 = 0.3458	851.059	1.38685	1292.6
293.15 K, x2 = 0.3942	859.037	1.3905	1307.4
293.15 K, x2 = 0.4516	868.376	1.39472	1324.6
293.15 K, x2 = 0.4973	875.647	1.398	1338.1
293.15 K, x2 = 0.5476	883.523	1.40156	1352.9
293.15 K, x2 = 0.599	891.359	1.40511	1367.5
293.15 K, x2 = 0.6521	899.454	1.40867	1382.9
293.15 K, x2 = 0.7051	907.302	1.41226	1397.8
293.15 K, x2 = 0.7538	914.504	1.41537	1411.4
293.15 K, x2 = 0.8063	921.993	1.41877	1425.7
293.15 K, x2 = 0.8441	927.346	1.42113	1436
293.15 K, x2 = 0.9022	935.518	1.42474	1451.7
293.15 K, x2 = 0.9471	941.723	1.42742	1463.7
298.15 K, x2 = 0	784.43	1.35386	1163.6
298.15 K, x2 = 0.05	793.781	1.35901	1180.1
298.15 K, x2 = 0.127	807.814	1.3664	1205.5
298.15 K, x2 = 0.1485	811.673	1.36834	1212.5
298.15 K, x2 = 0.1908	819.252	1.37223	1226.2
298.15 K, x2 = 0.2492	829.349	1.37711	1244.6
298.15 K, x2 = 0.297	837.55	1.38103	1259.6
298.15 K, x2 = 0.3399	844.898	1.38441	1273.1
298.15 K, x2 = 0.3997	854.838	1.38893	1291.5
298.15 K, x2 = 0.4461	862.361	1.39235	1305.3
298.15 K, x2 = 0.4978	870.632	1.39595	1320.8
298.15 K, x2 = 0.549	878.71	1.39951	1336.2
298.15 K, x2 = 0.5893	884.968	1.40233	1348.1
298.15 K, x2 = 0.6413	892.941	1.40581	1363.3
298.15 K, x2 = 0.6822	898.928	1.40851	1374.7
298.15 K, x2 = 0.7435	908.066	1.41236	1392.3
298.15 K, x2 = 0.7945	915.398	1.41552	1406.4
298.15 K, x2 = 0.8342	921.109	1.41805	1417.5
298.15 K, x2 = 0.8801	927.621	1.4209	1430.1
298.15 K, x2 = 0.9377	935.649	1.42451	1445.8
303.15 K, x2 = 0	778.63	–	1139.9
303.15 K, x2 = 0.0571	789.325	–	1159
303.15 K, x2 = 0.1075	798.734	–	1175.8
303.15 K, x2 = 0.148	805.999	–	1188.9
303.15 K, x2 = 0.2001	815.316	–	1205.7
303.15 K, x2 = 0.2528	824.518	–	1222.4
303.15 K, x2 = 0.3003	832.657	–	1237.3
303.15 K, x2 = 0.3487	840.866	–	1252.5
303.15 K, x2 = 0.392	848.12	–	1265.8
303.15 K, x2 = 0.4547	858.369	–	1284.8
303.15 K, x2 = 0.4991	865.505	–	1298.1
303.15 K, x2 = 0.5422	872.357	–	1310.9
303.15 K, x2 = 0.6046	882.041	–	1329.2
303.15 K, x2 = 0.6507	889.133	–	1342.6
303.15 K, x2 = 0.6986	896.27	–	1356.3
303.15 K, x2 = 0.7493	903.843	–	1370.7
303.15 K, x2 = 0.7975	910.848	–	1384.2
303.15 K, x2 = 0.8442	917.613	–	1397.1
303.15 K, x2 = 0.8972	925.06	–	1411.5
303.15 K, x2 = 0.9411	931.137	–	1423.4
